This is an account of results in patent US8415317B2, “Adjuvant compositions and methods for enhancing immune responses to polynucleotide-based vaccines” (priority 1999, dated 2013).

Each structure is given as a SMILES string. “Also recorded” adds a separate entry of the source.

Data set [1] relates to influenza nuclear protein (NP). Also noted: species or system mice. To be noted: mouse, in vivo.
The nature of data set [2]: Tolerability of i.m. injection in the mouse model. The class given is in vivo. To be noted: highest dose tested: 100 μg VR4700 plasmid+48 μg GAP-DMORIE+60 μg DPyPE per mouse. As for the experimental part: All cytofectin/co-lipid formulations used in this study remained uniformly opaque for several hours after preparation at room temperature without any visible aggregation. Formulations were injected 20 min-1.5 hours after complexation.

A further data set deals with hemagglutinin (HA). Set-up: species or system humans. To be noted: in vivo.

As to `CCCCCCCCCCCCCCOCC(C[N+](C)(C)CCO)OCCCCCCCCCCCCCC.[Br-]` (racemic) [DMRIE, (±)-N-(2-hydroxyethyl)-N,N-dimethyl-2,3-bis(tetradecyloxy)-1-propanaminium bromide], in data set [1], the “level of antibody stimulation (GMT relative to that for pDNA alone)” value (“level … (GMT relative to that for pDNA alone)” for short) is “equally active”.

In the case of `CCCC/C=C\CCCCCCCCOCC(C[N+](C)(C)CCCN)OCCCCCCCC/C=C\CCCC.[Br-]` (racemic) [GAP-DMORIE, (±)-N-(3-aminopropyl)-N,N-dimethyl-2,3-bis(syn-9-tetradeceneyloxy)-1-propanaminium bromide], in data set [1], the “humoral immune response, level of antibody titers from pDNA immunization” value is listed as “synergistic effect to further enhance the humoral immune response” and the “level … (GMT relative to that for pDNA alone)” value is on record as “markedly enhances antibody responses; also recorded: more active than either DMORIE or GAP-DMRIE”. Also, in data set [2], the “discomfort or adverse reactions when injected into mouse muscle” value is recorded as “did not appear to produce discomfort or result in any adverse reactions”. Further, the “immune responses of human subjects, HA GMT antibody titer” value with hemagglutinin (HA) was “induced”.

As for `CCCCCCCCCCCCCCOCC(C[N+](C)(C)CCCN)OCCCCCCCCCCCCCC.[Br-]` (racemic) [GAP-DMRIE, (±)-N-(3-aminopropyl)-N,N-dimethyl-2,3-(bis-tetradecyloxy)-1-propanaminium bromide], in data set [1], the “level … (GMT relative to that for pDNA alone)” value is “no apparent advantage”.

Turning to `CCCCCCCC/C=C\CCCCCCCCOCC(C[N+](C)(C)CCNC(=O)C(CCCNCCCN)NCCCN)OCCCCCCCC/C=C\CCCCCCCC.Cl.Cl.Cl.Cl.[Cl-]` (stereo not shown) [DOSPA, 2,3-dioleyloxy-N-(2-(sperminecarboxamido)ethyl)-N,N-dimethyl-1-propanaminium pentahydrochloride], the “level … (GMT relative to that for pDNA alone)” value in data set [1] was “less active than DORIE; also recorded: dramatically decreases the level of antibody titers relative to those seen for pDNA alone”.
